Experimental data published in PubChem BioAssay (NCI).
Values joined by “and” are separate entries in the source; they are usually repeats but may differ in a detail not shown here. Identical values can stand only once.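 Each compound was tested at five concentrations against cells in 96-well plates for 48 hours. Abbreviation: GI50, concentration required for 50% inhibition of growth. TGI is the concentration that stops growth completely.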

Assays:
Assay in all cases: NCI-60 cell line screen, 48 h
RXF 393 renal = system: RXF 393 renal
NCI-H460 lung = system: NCI-H460 lung
A498 renal = system: A498 renal
SF-539 CNS = system: SF-539 CNS
SNB-75 CNS = system: SNB-75 CNS
OVCAR-3 ovarian = system: OVCAR-3 ovarian
HCC-2998 colon = system: HCC-2998 colon
OVCAR-4 ovarian = system: OVCAR-4 ovarian
ACHN renal = system: ACHN renal
SW-620 colon = system: SW-620 colon

Row | Structure (SMILES) | TGI (RXF 393 renal) [µM] | TGI (NCI-H460 lung) [µM] | TGI (A498 renal) [µM] | TGI (SF-539 CNS) [µM] | TGI (SNB-75 CNS) [µM] | TGI (OVCAR-3 ovarian) [µM] | TGI (HCC-2998 colon) [µM] | TGI (OVCAR-4 ovarian) [µM] | TGI (ACHN renal) [µM] | TGI (SW-620 colon) [µM] | GI50 (RXF 393 renal) | GI50 (NCI-H460 lung) | GI50 (A498 renal) | GI50 (SF-539 CNS) | GI50 (OVCAR-3 ovarian) | GI50 (HCC-2998 colon) | GI50 (OVCAR-4 ovarian) | GI50 (ACHN renal) | GI50 (SW-620 colon) | GI50 (SNB-75 CNS) [µM]
1 | CCCCCCCCCCCCCCCC(=O)OCC1OC(OC)C2NP(=O)(N(CCCl)CCCl)OC1C2O (centres undefined) | 3.99 | 14.5 | 34.7 | 7.29 | 15.2 | 10.7 | 9.46 | 38 | 40.6 | 17.4 |  |  |  |  |  |  |  |  |  | 
2 | Cc1cc(C(=O)NC(CCC(=O)O)C(=O)O)sc1CCC1CNc2nc(N)[nH]c(=O)c2C1 (centres undefined) | > 100 | > 100 | > 100 | > 100 | > 100 | > 100 | > 100 | > 100 | > 100 | > 100 | 0.015 µM and < 0.0158 µM | < 0.0186 µM and 0.0404 µM | 0.199 µM and 0.0945 µM | 0.0383 µM and 0.0521 µM | 0.0523 µM and 0.487 µM | 0.0677 µM and 0.323 µM | 0.121 µM and 0.167 µM | 0.0133 µM and 0.0435 µM | < 0.0174 µM and 0.0255 µM | 
3 | CN(C)CC(C(=O)Cc1ccccc1)c1ccccc1 (centres undefined) | 4.86 | 14.8 | 25 | 3.99 | 11.5 | 3.48 | 30.3 | 5.87 | 3.53 | 3.59 | 2.39 µM | 4.24 µM | 12.4 µM | 1.87 µM | 1.9 µM | 15.9 µM | 2.35 µM | 1.97 µM | 1.79 µM | 2.72
4 | C=CC1(NS(=O)(=O)c2ccc(C)cc2)CCC(C(C)(C)C)CC1 (centres undefined) | 54.8 | > 100 | > 100 | > 100 | 54.1 | > 100 | > 100 | > 100 | > 100 | > 100 |  |  |  |  |  |  |  |  |  | 
5 | Cc1cccc(N2C(=O)C(=O)C(c3nc4ccccc4s3)/C(=N/NC(=S)NN)C2=O)c1C (centres undefined) | > 100 | > 100 | > 100 | > 100 | > 100 | > 100 | > 100 | > 100 | > 100 | > 100 |  |  |  |  |  |  |  |  |  | 
6 | CC1=C(Cl)C=CP(=O)(OC(C)C)C1 (centres undefined) | > 100 | > 100 | > 100 | > 100 | 47.3 | > 100 | > 100 | > 100 | > 100 | > 100 |  |  |  |  |  |  |  |  |  | 
7 | CN1CCN(Cc2ccc(NC(=O)c3cncc(C#Cc4cncc5nccnc45)c3)cc2C(F)(F)F)CC1 | 7.47 | 8.46 | 3.22 | 6 | 11.5 | 15.1 | 8.48 | 12 | 6.48 | 7.7 | 2.21 µM | 2.21 µM | 0.772 µM | 0.956 µM | 4.95 µM | 1.73 µM | 1.04 µM | 1.57 µM | 0.878 µM | 5.04
8 | C[C@]12CC[C@H]3[C@@H](C[C@@H]4SC(Nc5ccccc5)=N[C@@]45CC(O)CC[C@]35C)[C@@H]1CCC2O (some centres undefined) | 2.28 | 4.04 | 5.66 | 2.62 | 3.05 | 2.62 | 3.56 | 15.4 | 3.25 | 5.36 | 0.798 µM | 1.95 µM | 2.16 µM | 1.19 µM | 1.28 µM | 1.97 µM | 3.13 µM | 1.71 µM | 2.27 µM | 1.49
9 | CCCCNC(=O)Oc1ccc(/C(=C(/C)Cc2ccc(OC)cc2)c2ccc(OCCN3CCCC3)cc2)cc1 | 3.79 | 3.34 | 18.5 | 3.32 | 4.5 | 3.47 | 3.48 | 4.26 | 3.32 | 3.36 | 2.07 µM | 1.81 µM | 4.7 µM | 1.75 µM | 1.79 µM | 1.83 µM | 1.83 µM | 1.79 µM | 1.78 µM | 1.56
10 | O=[n+]1c2ccccc2n([O-])c2cc(Cl)ccc21 | 10 | 14.7 | 14.7 | 11.2 | 15 | 12.3 | 20.5 | 26.6 | 9.95 | 18.7 | 3.03 µM | 2.05 µM | 1.14 µM | 3.5 µM | 3.48 µM | 6.81 µM | 2.67 µM | 2.91 µM | 3.73 µM | 3.18
11 | COc1cc2ncnc(Nc3ccc4c(cnn4Cc4ccccc4)c3)c2cc1OC | > 25 | > 25 | > 25 | > 25 | > 25 | > 25 | > 25 | > 25 | > 25 | > 25 | 8.92 µM | > 25 µM | > 18.6 µM | > 15.8 µM | 15.1 µM | > 25 µM | > 25 µM | 0.642 µM | > 25 µM | > 25
12 | NCCOc1ccccc1/C=C1\c2ccccc2-c2ccc([N+](=O)[O-])cc21 | 3.1 | 1.66 | 2.76 | 3.18 | 2.55 | 3.17 | 3.09 | 3.27 | 2.69 | 2.43 | 1.6 µM | 0.488 µM | 1.44 µM | 1.79 µM | 1.76 µM | 1.51 µM | 1.79 µM | 1.38 µM | 1.09 µM | 1.28
13 | CCCCN[C@H]1C2C3CC4C5CC(C42)C1(C)C53 (some centres undefined) | > 100 | > 100 | > 100 | > 100 | > 100 | > 100 | > 100 | > 100 | > 100 | > 100 |  |  |  |  |  |  |  |  |  | 
